Consider three molecules from US6620588B1, “Method of identifying inhibitors of topoisomerase DNA religation” (priority 2000, dated 2003).

The test system of one assay is MCV-TOP. The assay is described as follows: Microtiter plate religation assay for MCV topoisomerase. It counts as biochemical, molluscum contagiosum virus.
The next assay deals with T1, EU-TOPO (Bos taurus, UniProt F1MN93).
T1 construct: purchased Gibco-BRL
Type of assay: biochemical, mammalian. The settings on record: for dependence of EU-TOPO inhibition on the base 3′ of the scissile phosphate: EU TG+P compared with EU TA+P substrate; for IC50: read-out: IC50, inhibition of religation by EU-TOPO. From the text:
The DNA substrate was designed to contain a preferred site for topoisomerase IB action identified in Tetrahymena DNA (A. H. Andersen, E. Gocke, B. J. Bonven, O. F. Nielsen and O. Westergaard. 1985. Topoisomerase I has a strong binding preference for a conserved hexadecameric sequence in the promoter region of the rRNA gene from Tetrahymena pyriformis. Nuc. Acids Res. 13, 1543-1556; B. J. Bonven, E. Bocke and O. Westergaard. 1985. A High Affinity Topoisomerase I Binding Sequence is Clustered at DNase I Hypersensitive Sites in Tetrahymena R-Chromatin. Cell 41, 541-551).
Two orders of addition were compared. Reactions were carried out in which enzyme was preincubated with inhibitor before addition of DNA substrate (FIG. 5, “complete”), which would reveal inhibition at any step in the reaction pathway. Reactions were also carried out in which covalent complexes were formed, then inhibitor added, followed by the religation strand (FIG. 5, “religation”). The latter order of addition tested inhibition of the religation step only.
For EU-TOPO, two different substrate DNAs were tested, containing TA or TG as the bases flanking the scissile phosphate. […] 1998. Molecular Modeling Studies of the DNA-Topoisomerase I Ternary Cleavable Complex with Camptothecin. J. Med. Chem. 41, 2216-2226), so such effects were sought to be discriminated using the microtiter assay.
Standard reaction mixture for assaying EU-TOPO contains 2.5 units EU-TOPO, 2 nM substrate oligonucleotide, 20 mM Tris-Cl (pH 8.0), 72 mM KCl, 5 mM MgCl2, 5 mM DTT and 10% DMSO. EU-TOPO was obtained from Gibco-BRL. The EU-TOPO suicide substrate was based on an optimal sequence found in a Tetrahymena rRNA gene (see FIG. 2B) (A. H. Andersen, E. Gocke, B. J. Bonven, O. F. Nielsen and O. Westergaard. 1985. Topoisomerase I has a strong binding preference for a conserved hexadecameric sequence in the promoter region of the rRNA gene from Tetrahymena pyriformis. Nuc. Acids Res. 13, 1543-1556; B. J. Bonven, E. Bocke and O. Westergaard. 1985. A High Affinity Topoisomerase I Binding Sequence is Clustered at DNase I Hypersensitive Sites in Tetrahymena R-Chromatin. Cell 41, 541-551).
After the topoisomerase reactions were completed, mixtures were adjusted to 20 mM Tris-Cl (pH 8.0), 400 mM NaCl, 10 mM EDTA, and 0.1 mg/ml sonicated salmon sperm DNA in a final volume of 100 μl. 400 mM NaCl was omitted in EU-TOPO assay. The samples were added to avidin-coupled microtiter wells (Boehringer Mannheim), which were then gently agitated at room temperature for 1 hr. Unbound DNA was removed by 3 washes (200 μl, 5 min each) with 30 mM NaOH, 200 mM NaCl, 1 mM EDTA. Bound DNA was then adjusted to 10 mM Tris-Cl (pH 8.0) and 1 mM EDTA. The relative topoisomerase activity was determined using an anti-digoxigenin ELISA. Anti-digoxigenin-peroxidase Fab fragments (0.01 units, Pierce or Boehringer Mannheim) were added into wells and incubated for 1 hr at 37° C. Unbound Anti-digoxigenin peroxidase Fab fragments were removed by 5 washes (300 μl) with PBS containing 0.1% Tween 20. Bound DNA was then incubated with 200 μl of 3,3′-5,5′-tetramethylbenzidine (TMB) solution (Boehringer Mannheim) until sufficient blue product accumulated. The reaction was terminated by adding 100 μl of 1 M sulfuric acid. The resulting yellow color was quantitated at 450 nm.

Read-outs that look alike come from different tables or passages of the source.

T1 sequence (F1MN93 entry or part of it): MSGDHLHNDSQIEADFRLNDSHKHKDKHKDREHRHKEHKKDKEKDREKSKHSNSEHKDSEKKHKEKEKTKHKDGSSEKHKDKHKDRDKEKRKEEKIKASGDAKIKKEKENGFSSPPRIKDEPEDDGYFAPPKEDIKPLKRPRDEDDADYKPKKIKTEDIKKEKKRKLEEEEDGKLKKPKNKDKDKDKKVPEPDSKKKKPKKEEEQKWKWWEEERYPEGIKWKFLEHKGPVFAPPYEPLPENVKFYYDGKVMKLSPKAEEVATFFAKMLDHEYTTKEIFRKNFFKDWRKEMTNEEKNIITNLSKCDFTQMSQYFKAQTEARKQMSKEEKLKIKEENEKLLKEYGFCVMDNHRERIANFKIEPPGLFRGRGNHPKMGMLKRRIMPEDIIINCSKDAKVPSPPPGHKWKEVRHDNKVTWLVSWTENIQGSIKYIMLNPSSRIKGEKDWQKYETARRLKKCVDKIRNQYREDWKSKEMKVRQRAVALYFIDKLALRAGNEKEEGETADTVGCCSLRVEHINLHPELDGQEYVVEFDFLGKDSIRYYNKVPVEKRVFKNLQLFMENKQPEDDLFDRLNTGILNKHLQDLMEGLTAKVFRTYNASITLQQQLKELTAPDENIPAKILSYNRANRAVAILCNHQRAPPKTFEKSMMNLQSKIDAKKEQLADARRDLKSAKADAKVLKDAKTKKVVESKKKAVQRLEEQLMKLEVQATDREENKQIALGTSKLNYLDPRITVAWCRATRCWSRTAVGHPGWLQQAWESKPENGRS

Turning to `CC[C@@]1(O)C(=O)OCc2c1cc1n(c2=O)Cc2cc3ccccc3nc2-1` [Camptothecin], in the assay on MCV-TOP (FIG. 5A), the “activity against MCV-TOP” value was “not active”. Besides, at EU-TOPO, the “dependence of EU-TOPO inhibition on the base 3′ of the scissile phosphate” value (“dependence of EU-TOPO inhibition” for short) is recorded as “more efficient when the 3′ base was G”.
Coumermycin A1: the “inhibition of MCV-TOP, religation step” value in the assay with MCV-TOP (inhibitor added after covalent complex formation, FIG. 5A) is on record as “not religation”. In the assay with MCV-TOP (inhibitor added to enzyme before DNA substrate, FIG. 5A), the “inhibition of MCV-TOP, complete reaction” value is “inhibit the complete reaction”. In addition, the “dependence of EU-TOPO inhibition” value at EU-TOPO was “not sensitive”. The “inhibition of EU-TOPO” value against EU-TOPO (FIGS. 5B and 5C) is recorded as “inhibited”. Besides, the “inhibition of EU-TOPO, complete reaction compared with religation” value against EU-TOPO (two orders of addition) is on record as “comparable”.
Take (−)-epigallocatechin 3-O-gallate [EGCG]: the “effect on MCV-TOP” value in the assay on MCV-TOP (in the concentration range of the EU-TOPO IC50s (nanomolar)) is on record as “no effect”. In addition, the half-inhibitory concentration (IC50) at EU-TOPO (EU TA+P substrate (A/T base pair 3′ of the point of cleavage)) stood at 500 nM; at EU-TOPO (EU TG+P substrate (G/C base pair 3′ of the point of cleavage)) it was 26 nM. Also, the “dependence of EU-TOPO inhibition” value on EU-TOPO is “far more inhibitory on the DNA substrate containing a G/C base pair 3′ of the point of cleavage”.

The IC50 is the concentration at which inhibition is half-maximal.
